Measured values: article PMC6440935, “Characterization and phase I study of CLR457, an orally bioavailable pan-class I PI3-kinase inhibitor” (Investigational New Drugs, 2018)
Read-outs that look alike come from different tables or passages of the source.

Settings: drug-related
Description: The primary objective was to define the maximum tolerated dose (MTD). Secondary objectives included assessments for safety, tolerability, pharmacokinetic (PK) profile, and preliminary antitumor activity.
Patients had histologically documented locally advanced or metastatic solid tumors harboring an activating PIK3CA mutation or amplification, PTEN loss of function, c-MET activation, [16, 17] […] Other key inclusion criteria included age ≥ 18 years, Eastern Cooperative Oncology Group performance status (ECOG-PS) ≤2, adequate organ function, measurable or non-measurable disease as determined by Response Evaluation Criteria in Solid Tumors (RECIST) version 1.1.
The starting dose for CLR457 was 5 mg QD, based on preclinical toxicology studies in accordance with ICH guidelines, and was administered at the same time each day ±2 h in a fasted state. Various doses were planned up to 300 mg QD until MTD determination.
Safety was evaluated by incidence, nature, severity, and relatedness of adverse events (AEs), and graded according to National Cancer Institute - Common Terminology Criteria for Adverse Events (NCI CTCAE) v4.0.3. DLTs were defined as any hematologic or non-hematologic ≥ Grade 3 AE assessed as possibly related to CLR457 that occurred within the first cycle (28 days) of treatment. In addition, uncontrolled (> 14 days) Grade 2 rash or hyperglycemia were also considered DLTs. All AEs regardless of attribution were collected until 30 days following the last administration of treatment or study discontinuation/termination.
Descriptive methods were used to tabulate toxicity and response endpoints in the clinical trial. All patients treated with CLR457 were included for safety. […] Dose escalation was guided by an adaptive Bayesian logistic regression model (BLRM) incorporating the escalation with overdose control (EWOC) principle. […] The study data (including DLTs during cycle 1 and other safety and PK data) were reviewed by the sponsor and trial investigators at each dose level. […] The Full Analysis Set (FAS) included all patients who received at least one dose of CLR457. Safety set included all patients who received at least one dose of CLR457 and had at least one valid post-baseline assessment. The Dose-determining set (DDS) included all patients from the safety set who either met the following minimum exposure criterion and had sufficient safety evaluations, or experienced a DLT during Cycle 1 (the first 28 days of dosing). The Pharmacokinetic analysis set included all patients who had at least one blood sample providing evaluable PK data.

C[C@H]1OC(=O)N(c2cc(-c3cnc(N)nc3C(F)(F)F)nc(N3CCOCC3)n2)[C@H]1CO [CLR457]
Cough, Grade ≥ 3 (10 mg, N = 3): 0 n (%) | Decreased appetite, All Grade (10 mg, N = 3): 0 n (%) | Decreased appetite, Grade ≥ 3 (10 mg, N = 3): 0 n (%) | Decreased neutrophil count, All Grade (10 mg, N = 3): 0 n (%) | Decreased neutrophil count, Grade ≥ 3 (10 mg, N = 3): 0 n (%) | Dehydration, All Grade (10 mg, N = 3): 0 n (%) | Dehydration, Grade ≥ 3 (10 mg, N = 3): 0 n (%) | Diarrhea, All Grade (10 mg, N = 3): 0 n (%) | Diarrhea, Grade ≥ 3 (10 mg, N = 3): 0 n (%) | Dry mouth, All Grade (10 mg, N = 3): 0 n (%) | Dry mouth, Grade ≥ 3 (10 mg, N = 3): 0 n (%) | Dry skin, All Grade (10 mg, N = 3): 0 n (%) | Dry skin, Grade ≥ 3 (10 mg, N = 3): 0 n (%) | Dysgeusia, All Grade (10 mg, N = 3): 0 n (%) | Dysgeusia, Grade ≥ 3 (10 mg, N = 3): 0 n (%) | Fatigue, All Grade (10 mg, N = 3): 1 (33.3) n (%) | Fatigue, Grade ≥ 3 (10 mg, N = 3): 0 n (%) | Headache, All Grade (10 mg, N = 3): 0 n (%) | Headache, Grade ≥ 3 (10 mg, N = 3): 0 n (%) | Hyperglycemia, All Grade (10 mg, N = 3): 0 n (%) | Hyperglycemia, Grade ≥ 3 (10 mg, N = 3): 0 n (%) | Hypomagnesaemia, All Grade (10 mg, N = 3): 0 n (%) | Hypomagnesaemia, Grade ≥ 3 (10 mg, N = 3): 0 n (%) | Maculo-papular rash, All Grade (10 mg, N = 3): 0 n (%) | Maculo-papular rash, Grade ≥ 3 (10 mg, N = 3): 0 n (%) | Nausea, All Grade (10 mg, N = 3): 1 (33.3) n (%) | Nausea, Grade ≥ 3 (10 mg, N = 3): 0 n (%) | Pneumonitis, All Grade (10 mg, N = 3): 0 n (%) | Pneumonitis, Grade ≥ 3 (10 mg, N = 3): 0 n (%) | Pruritus, All Grade (10 mg, N = 3): 0 n (%) | Pruritus, Grade ≥ 3 (10 mg, N = 3): 0 n (%) | Pyrexia, All Grade (10 mg, N = 3): 0 n (%) | Pyrexia, Grade ≥ 3 (10 mg, N = 3): 0 n (%) | Rash, All Grade (10 mg, N = 3): 0 n (%) | Rash, Grade ≥ 3 (10 mg, N = 3): 0 n (%) | Stomatitis, All Grade (10 mg, N = 3): 0 n (%) | Stomatitis, Grade ≥ 3 (10 mg, N = 3): 0 n (%) | Vomiting, All Grade (10 mg, N = 3): 0 n (%) | Vomiting, Grade ≥ 3 (10 mg, N = 3): 0 n (%) | Weight decreased, All Grade (10 mg, N = 3): 0 n (%) | Weight decreased, Grade ≥ 3 (10 mg, N = 3): 0 n (%) | Asthenia, Grade ≥ 3 (20 mg, N = 4): 0 n (%) | Chills, All Grade (20 mg, N = 4): 0 n (%) | Chills, Grade ≥ 3 (20 mg, N = 4): 0 n (%) | Colitis, All Grade (20 mg, N = 4): 0 n (%) | Colitis, Grade ≥ 3 (20 mg, N = 4): 0 n (%) | Cough, All Grade (20 mg, N = 4): 0 n (%) | Cough, Grade ≥ 3 (20 mg, N = 4): 0 n (%) | Decreased appetite, All Grade (20 mg, N = 4): 0 n (%) | Decreased appetite, Grade ≥ 3 (20 mg, N = 4): 0 n (%) | Decreased neutrophil count, All Grade (20 mg, N = 4): 0 n (%) | Decreased neutrophil count, Grade ≥ 3 (20 mg, N = 4): 0 n (%) | Dehydration, All Grade (20 mg, N = 4): 0 n (%) | Dehydration, Grade ≥ 3 (20 mg, N = 4): 0 n (%) | Diarrhea, All Grade (20 mg, N = 4): 0 n (%) | Diarrhea, Grade ≥ 3 (20 mg, N = 4): 0 n (%) | Dry mouth, All Grade (20 mg, N = 4): 0 n (%) | Dry mouth, Grade ≥ 3 (20 mg, N = 4): 0 n (%) | Dry skin, All Grade (20 mg, N = 4): 0 n (%) | Dry skin, Grade ≥ 3 (20 mg, N = 4): 0 n (%) | Dysgeusia, All Grade (20 mg, N = 4): 0 n (%) | Dysgeusia, Grade ≥ 3 (20 mg, N = 4): 0 n (%) | Fatigue, All Grade (20 mg, N = 4): 1 (25.0) n (%) | Fatigue, Grade ≥ 3 (20 mg, N = 4): 0 n (%) | Headache, All Grade (20 mg, N = 4): 0 n (%) | Headache, Grade ≥ 3 (20 mg, N = 4): 0 n (%) | Hyperglycemia, All Grade (20 mg, N = 4): 0 n (%) | Hyperglycemia, Grade ≥ 3 (20 mg, N = 4): 0 n (%) | Hypomagnesaemia, All Grade (20 mg, N = 4): 0 n (%) | Hypomagnesaemia, Grade ≥ 3 (20 mg, N = 4): 0 n (%) | Maculo-papular rash, All Grade (20 mg, N = 4): 0 n (%) | Maculo-papular rash, Grade ≥ 3 (20 mg, N = 4): 0 n (%) | Nausea, All Grade (20 mg, N = 4): 0 n (%) | Nausea, Grade ≥ 3 (20 mg, N = 4): 0 n (%) | Pneumonitis, All Grade (20 mg, N = 4): 0 n (%) | Pneumonitis, Grade ≥ 3 (20 mg, N = 4): 0 n (%) | Pruritus, All Grade (20 mg, N = 4): 0 n (%) | Pruritus, Grade ≥ 3 (20 mg, N = 4): 0 n (%) | Pyrexia, All Grade (20 mg, N = 4): 0 n (%) | Pyrexia, Grade ≥ 3 (20 mg, N = 4): 0 n (%) | Rash, All Grade (20 mg, N = 4): 1 (25.0) n (%) | Rash, Grade ≥ 3 (20 mg, N = 4): 0 n (%) | Stomatitis, All Grade (20 mg, N = 4): 0 n (%) | Stomatitis, Grade ≥ 3 (20 mg, N = 4): 0 n (%) | Vomiting, All Grade (20 mg, N = 4): 0 n (%) | Vomiting, Grade ≥ 3 (20 mg, N = 4): 0 n (%) | Weight decreased, All Grade (20 mg, N = 4): 0 n (%) | Weight decreased, Grade ≥ 3 (20 mg, N = 4): 0 n (%) | Asthenia, Grade ≥ 3 (40 mg, N = 5): 0 n (%) | Chills, All Grade (40 mg, N = 5): 0 n (%) | Chills, Grade ≥ 3 (40 mg, N = 5): 0 n (%) | Colitis, All Grade (40 mg, N = 5): 0 n (%) | Colitis, Grade ≥ 3 (40 mg, N = 5): 0 n (%) | Cough, All Grade (40 mg, N = 5): 0 n (%) | Cough, Grade ≥ 3 (40 mg, N = 5): 0 n (%) | Decreased appetite, All Grade (40 mg, N = 5): 1 (20.0) n (%) | Decreased appetite, Grade ≥ 3 (40 mg, N = 5): 0 n (%)
